In US5510478A, “2-arylamidothiazole derivatives with CNS activity” (American Home Products Corporation, priority 1994, dated 1996):
Where two headings read alike, the source gives them in different places.

What was measured:
M1 receptor (rat cortex) = target: T1, M1 receptor (rat cortex) (Rattus norvegicus, UniProt P08482); test: M1 [3H]pirenzepine binding in rat cortex; conditions: for inhibition at 1 µM: read-out: M1 3H PZ binding in rat cortex at 1 μM, % inhibition
T1 construct: from tissue; host or cells: rat brain cortex
T1 sequence (P08482 1-460): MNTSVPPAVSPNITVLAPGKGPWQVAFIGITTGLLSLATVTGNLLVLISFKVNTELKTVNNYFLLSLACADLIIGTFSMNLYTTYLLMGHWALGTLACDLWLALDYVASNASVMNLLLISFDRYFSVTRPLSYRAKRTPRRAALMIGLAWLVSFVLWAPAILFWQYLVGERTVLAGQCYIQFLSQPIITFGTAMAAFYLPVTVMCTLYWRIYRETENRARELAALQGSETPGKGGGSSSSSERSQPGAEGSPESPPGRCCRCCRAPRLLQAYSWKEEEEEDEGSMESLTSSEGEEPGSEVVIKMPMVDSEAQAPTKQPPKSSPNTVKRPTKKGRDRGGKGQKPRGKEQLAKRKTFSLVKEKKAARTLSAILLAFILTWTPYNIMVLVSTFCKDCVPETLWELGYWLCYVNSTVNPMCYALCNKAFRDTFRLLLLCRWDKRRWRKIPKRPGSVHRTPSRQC

dopamine D-2 receptor = target: T2, dopamine D-2 receptor (Rattus norvegicus, UniProt P61169); test: Dopamine D-2 receptor binding, 3H-spiroperidol, limbic brain tissue
T2 construct: from tissue; host or cells: limbic brain tissue (homogenate)
Procedure: High affinity for the dopamine D-2 receptor was established by the standard experimental test procedure of Fields, et al., Brain Res., 136, 578 (1977) and Yamamura et al., eds., Neurotransmitter Receptor Binding, Raven Press, N.Y. (1978) wherein homogenized limbic brain tissue is incubated with ^3 H-spiroperidol and various concentrations of test compound, filtered and washed and shaken with Hydrofluor scintillation cocktail (National Diagnostics) and counted in a Packard 460 CD scintillation counter.

[1] = system: 5-HT1A serotonin receptor; test: Serotonin 5-HT1A receptor binding, displacement of [3H]8-OHDPAT
Source text: High affinity for the serotonin 5-HT1A receptor was established by testing the claimed compound's ability to displace ^3 H!8-OHDPAT (dipropylaminotetralin) from the 5-HT1A serotonin receptor following the procedure of Hall et al., J. Neurochem. 44, 1685 (1985). […] The anxiolytic activity of buspirone is believed to be, at least partially, due to its 5-HT1A receptor affinity (Vander Maclen et al., Eur. J. Pharmacol. 1986, 129 (1-2) 133-130).

[2] = system: patients with mild to moderate Alzheimer's Disease; conditions: cited from earlier work; for memory improvement in patients (in words): mild to moderate Alzheimer's Disease
[3] = in vivo; cited from earlier work
[4] = target: T3, M2 receptor (rat cerebellum) (Rattus norvegicus, UniProt P10980); test: biochemical; conditions: read-out: M2 3H QNB binding in rat cerebellum, IC50
T3 sequence (P10980 1-466): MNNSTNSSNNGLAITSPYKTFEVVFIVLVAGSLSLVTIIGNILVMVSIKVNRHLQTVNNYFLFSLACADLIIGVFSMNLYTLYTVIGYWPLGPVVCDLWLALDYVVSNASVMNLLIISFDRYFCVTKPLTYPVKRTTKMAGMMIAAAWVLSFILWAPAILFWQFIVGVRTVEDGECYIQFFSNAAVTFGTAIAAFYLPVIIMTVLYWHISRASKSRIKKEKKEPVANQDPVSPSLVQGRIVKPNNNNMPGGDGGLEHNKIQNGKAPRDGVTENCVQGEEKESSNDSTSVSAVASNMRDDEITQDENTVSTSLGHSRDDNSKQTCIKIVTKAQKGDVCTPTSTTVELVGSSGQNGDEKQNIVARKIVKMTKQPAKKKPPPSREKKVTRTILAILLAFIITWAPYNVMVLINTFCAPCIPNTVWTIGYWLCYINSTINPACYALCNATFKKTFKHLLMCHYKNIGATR

[5] = system: Male CFW mice (scopolamine-induced hyperactivity); test: Reversal of scopolamine-induced hyperactivity in mouse swim tank; assay type: in vivo; conditions: ip, 5 min, 0.3 mg/kg scopolamine.HBr, swim distance, read-out: minimum effective dose (MED), reversing the hyperactivity of scopolamine treated animals
Procedure: The compound of Example 1 was also tested in accordance with the procedure of Symons et al, Soc. Neuroscience Abstracts 12:2, 897 (1986) in which Male CFW mice, 25 to 35 grams in weight are given the test compound in suitable vehicle plus 0.3 mg/kg scopoolamine.HBr in suitable vehicle, i.p.(3 groups of 12 animals each) or vehicle alone (1 group of 12 animals ) or vehicle plus scopolamine. HBr (1 group of 12 animals). The rates are placed in a swim tank, individually, containing 10 cm H2 O for a period of 5 minutes and the distance each animal swims is recorded.

[6] = system: Sprague-Dawley male rats (scopolamine-disrupted performance); test: Eight arm radial maze, reversal of scopolamine disrupted rat performance; assay type: in vivo; conditions: ip, scopolamine HBr 0.3 mg/kg s.c., test compound i.p., read-out: minimum effective dose (MED), reversal of scopolamine disrupted rat performance
Procedure: The compound of Example 1 was also tested in the eight arm radial maze test procedure in which Sprague-Dawley male rats at 85% of their free feeding weight are trained to obtain two food pellets from food cups placed at the ends of four of the eight arms radiating from a circular central area of the maze, in a five minute period. After training to a level of error (return to a previously entered arm is error) equal to or less than 2, the rats performance is disrupted with scopolamine HBr (0.3 mg/kg, s.c.) and test compound dosage (i.p.). The number of errors are then determined and compared with control receiving scopolamine alone.

[7] = system: 5-HT1A serotonin receptor; conditions: standard for anxiolytic activity; cited from earlier work

T2 sequence (P61169 whole entry): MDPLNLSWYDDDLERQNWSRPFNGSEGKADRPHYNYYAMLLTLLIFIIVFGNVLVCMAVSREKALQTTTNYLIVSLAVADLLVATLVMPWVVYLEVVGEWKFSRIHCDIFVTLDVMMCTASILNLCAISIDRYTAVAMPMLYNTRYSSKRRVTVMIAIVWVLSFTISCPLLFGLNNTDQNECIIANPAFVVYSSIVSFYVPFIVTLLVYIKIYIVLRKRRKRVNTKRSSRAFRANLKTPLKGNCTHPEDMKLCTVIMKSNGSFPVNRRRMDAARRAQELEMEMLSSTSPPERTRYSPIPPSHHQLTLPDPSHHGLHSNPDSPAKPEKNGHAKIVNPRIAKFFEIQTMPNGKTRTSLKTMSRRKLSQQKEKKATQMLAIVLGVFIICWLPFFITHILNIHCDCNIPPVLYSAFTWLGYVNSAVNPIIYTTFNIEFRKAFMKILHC

## CC(C)(C)c1cc(C(=O)Nc2nc(C(=O)NCCN3CC4CCC(CC4)C3)cs2)cc(C(C)(C)C)c1O [Example 3]
M1 receptor (rat cortex)
  inhibition at 1 µM: 70.5%

## COc1ccccc1N1CCN(CCOC(=O)Cc2csc(NC(=O)c3cc(C(C)(C)C)c(O)c(C(C)(C)C)c3)n2)CC1 [Example 15]
Dopamine D-2 receptor
  inhibition at 1 µM: 51%

## O=C(Cc1csc(NC(=O)c2ccc(F)cc2)n1)OCCN1CCN(c2ncccn2)CC1 [Example 16, 2-(4-Fluorobenzoyl)amino!-4-thiazoleacetic acid 2-4-(2-pyrimidinyl)-1-piperazinyl!ethyl ester]
Dopamine D-2 receptor
  inhibition at 1 µM: 34%

## O=C(Nc1nc(C(=O)NC2CN3CCC2CC3)cs1)c1ccc(OCc2ccccc2)cc1 (stereo not drawn) [Example 8]
M1 receptor (rat cortex)
  inhibition at 1 µM: 85.8%

## COc1ccccc1N1CCN(CCCOC(=O)Cc2csc(NC(=O)c3ccc(F)cc3)n2)CC1 [Example 13, 2-(4-Fluorobenzoyl)amino!-4-thiazoleacetic acid 3-4-(2-methoxyphenyl)-1-piperazinyl!propyl ester]
[1]
  5-HT1A Binding (% Inhibition at 1 μM): 100%
Dopamine D-2 receptor
  inhibition at 1 µM: 81%

## COC(=O)C1=CCCN(C)C1 [arecoline]
[2]
  memory improvement in patients (in words): memory improvement
[3]
  half-life (in words): short half-life

## COc1ccccc1N1CCN(CCCOC(=O)Cc2csc(NC(=O)c3cc(C(C)(C)C)c(O)c(C(C)(C)C)c3)n2)CC1 [Example 14, 2-3,5-Bis(1,1-dimethylethyl)-4-hydroxyphenyl!carbonyl!amino!-4-thiazoleacetic acid 3-4-(2-methoxyphenyl)-1-piperazinyl!propyl ester]
[1]
  5-HT1A Binding (% Inhibition at 1 μM): 89%
Dopamine D-2 receptor
  inhibition at 1 µM: 91%

## CN(C)CCOC(=O)c1csc(NC(=O)c2cc(C(C)(C)C)c(O)c(C(C)(C)C)c2)n1 [Example 1, 2-3.5.-Bis(1.1-dimethylethyl)-4-hydroxybenzoyl!amino!-4-thiazolecarboxylic acid 2-(dimethylamino)ethyl ester]
[4]
  IC50: 3400 nM
[5]
  minimal effective dose: 3 mg/kg
M1 receptor (rat cortex); rat cortex, [3H]pirenzepine, read-out: M1 3H PZ binding in rat cortex, IC50
  IC50: 54 nM
[6]
  minimal effective dose: 3 mg/kg

## CC(C)(C)c1cc(C(=O)Nc2nc(C(=O)NCCCN3CC4CCC(CC4)C3)cs2)cc(C(C)(C)C)c1O [Example 5, N-3-(3-Azabicyclo 3.2.2!non-3-yl)propyl-2-3.5-bis(1.1-dimethylethyl)-4-hydroxybenzoyl!amino!-4-thiazolecarboxamide]
M1 receptor (rat cortex)
  inhibition at 1 µM: 78%

## O=C(Cc1csc(NC(=O)c2ccc(F)cc2)n1)NCCCCN1CC2CCC(CC2)C1 [Example 12, N-4-(3-Azabicyclo 3.2.2!non-3-yl)butyl-2-(4-fluorobenzoyl)amino!-4-thiazoleacetamide]
M1 receptor (rat cortex)
  inhibition at 1 µM: 57%

## O=C(Nc1nc(C(=O)NCCCN2CC3CCC(CC3)C2)cs1)c1ccc(O)cc1 [Example 10, N-3-(3- Azabicyclo 3.2.2!non-3-yl)propyl-2-4-hydroxybenzoyl!amino-4-thiazolecarboxamide]
M1 receptor (rat cortex)
  inhibition at 1 µM: 58.7%

## CC(C)(C)c1cc(C(=O)Nc2nc(C(=O)NCCCCN3CC4CCC(CC4)C3)cs2)cc(C(C)(C)C)c1O [Example 6, N-4-(3-Azabicyclo 3.2.21non-3-yl)butyl!-2-3,5-bis(1,1-dimethylethyl)-4-hydroxybenzoyl!amino!-4-thiazolecarboxamide]
M1 receptor (rat cortex)
  inhibition at 1 µM: 86%

## CC(C)(C)c1cc(C(=O)Nc2nc(CC(=O)NCCN3CCN(c4ncccn4)CC3)cs2)cc(C(C)(C)C)c1O [Example 17]
Dopamine D-2 receptor; 0.1 μM
  inhibition at 0.1 µM: 5%

## O=C1CC2(CCCC2)CC(=O)N1CCCCN1CCN(c2ncccn2)CC1 [buspirone]
[7]
  5-HT1A receptor affinity (in words): potent affinity

## CC(C)(C)c1cc(C(=O)Nc2nc(C(=O)OCCN3CC4CCC(CC4)C3)cs2)cc(C(C)(C)C)c1O [Example 4, 2-3.5-Bis(1.1-dimethylethyl)-4-hydroxybenzoyl!amino !-4-thiazolecarboxylic acid 2-(3-azabicyclo 3.2.2.!non-3-yl)ethyl ester]
M1 receptor (rat cortex)
  inhibition at 1 µM: 90.6%

## Nc1c2c(nc3ccccc13)CCCC2 [tacrine]
[2]; especially at the higher doses where it is most effective
  adverse side effects (in words): adverse side effects
[2]
  memory improvement in patients (in words): improvement in memory

## O=C(Nc1nc(C(=O)NCCCCN2CC3CCC(CC3)C2)cs1)c1ccc(O)cc1 [Example 11, N-4-(3-Azabicyclo 3.2.2!non-3-yl)butyl-2-4-hydroxybenzoyl!amino!-4-thiazolecarboxamide]
M1 receptor (rat cortex)
  inhibition at 1 µM: 63.9%

## O=C(Nc1nc(C(=O)NCCCCN2CC3CCC(CC3)C2)cs1)c1ccc(OCc2ccccc2)cc1 [Example 9]
M1 receptor (rat cortex)
  inhibition at 1 µM: 62%

## CC(C)(C)c1cc(C(=O)Nc2nc(C(=O)NC3CN4CCC3CC4)cs2)cc(C(C)(C)C)c1O (stereo not drawn) [Example 7]
M1 receptor (rat cortex)
  inhibition at 1 µM: 104%

## CN(C)CCNC(=O)c1csc(NC(=O)c2cc(C(C)(C)C)c(O)c(C(C)(C)C)c2)n1 [Example 2, 2-3,5,-Bis(1.1-dimethylethyl)-4-hydroxybenzoyl!amino!-N-2-(dimethylamino)ethyl!-4-thiazolecarboxamide]
M1 receptor (rat cortex); 1 μM, rat cortex, [3H]pirenzepine
  inhibition at 1 µM: 98.6%
